# Results taken from patent US20230293469A1, “NOVEL PHARMACEUTICAL COMPOSITIONS” (NEUROPRO THERAPEUTICS, INC., priority 2020, published 2023).
# How the values were obtained:
# Human Microsomes = test: Metabolite screening of NPT-2042 in human microsomes; format: in vitro ADME; conditions: NPT-2042 10 uM, microsomes 1 mg/mL
# Method: Incubation of Test Compound in Microsomes • 1. Compound final concentration: 10 uM. • 2. Microsomes concentration 1 mg/mL. • 3. Incubate for 1 hour, with an NADPH regenerating system. • 4. 0.5 mL of incubation mixture at 0 min and 1 hour, mixed with 0.5 mL of acetonitrile. • 5. Vortex, and centrifuge at 13200 rpm for 10 min. • 6. Supernatant was transferred to a clean vial for LCMS analysis NADPH regenerating system (cofactor; consisting of NADP [0.340 mg/mL], G6P [1.56 mg/mL], and G6PDH [0.4 U/mL] solutions) LC-MS/MS Method: • HPLC Column: Agilent, Polaris 3 […], 150×2.0 mm (S/N: 533819), made in Netherlands. • Guard Column: Agilent, MonoChrom 3 C18 MetaGuard, 10×2.0 mm (S/N: 556145) • Column temperature: 40° C. • Mobile Phase A: 5 mM ammonium format in water (Optima) • Mobile Phase B: acetonitrile (Optima) • Flow rate: 0.2 mL/min • Gradient (Table on right) • MS: Thermo Q Exactive Plus.
# Microsomes = test: Proposed metabolite structures and biotransformation pathways (rat, dog, human microsomes); format: in vitro ADME; conditions: rat, dog, human microsomes, 10 uM, 1 hour
# Method: Incubation of Test Compound in Microsomes • 1. Compound final concentration: 10 uM. • 2. Microsomes concentration 1 mg/mL. • 3. Incubate for 1 hour, with an NADPH regenerating system. • 4. 0.5 mL of incubation mixture at 0 min and 1 hour, mixed with 0.5 mL of acetonitrile. • 5. Vortex, and centrifuge at 13200 rpm for 10 min. • 6. Supernatant was transferred to a clean vial for LCMS analysis NADPH regenerating system (cofactor; consisting of NADP [0.340 mg/mL], G6P [1.56 mg/mL], and G6PDH [0.4 U/mL] solutions)
# LC-MS/MS Method: • HPLC Column: Agilent, Polaris 3 C18-A, 150×2.0 mm (S/N: 533819), made in Netherlands. • Guard Column: Agilent, MonoChrom 3 C18 MetaGuard, 10×2.0 mm (S/N: 556145) • Column temperature: 40° C. • Mobile Phase A: 5 mM ammonium format in water (Optima) • Mobile Phase B: acetonitrile (Optima) • Flow rate: 0.2 mL/min • Gradient (Table on right) • MS: Thermo Q Exactive Plus.
# Summary of Proposed Metabolite Structures and Biotransformation Pathway
compound,measurement,setting,value
"CCCCNc1cc(C(=O)N(Cc2ccccc2)Cc2ccccc2)cc(S(N)(=O)=O)c1Oc1ccccc1 [NPT-2042, N,N-Dibenzyl 3-Aminosulfonyl-5-butylamino-4-phenoxybenzamide]",Human Mic (MS Intensity),"Human Microsomes; 1 hour, NADPH regenerating system",1.64E+08
same,Human Mic (MS Intensity),Human Microsomes; T = 0,3.71E+08
same,Major biotransformation pathways,Microsomes,"De-alkylation, Mono-oxidation, and Mono-oxidation and De-alkylation"
